Data from ChEMBL document CHEMBL1208770, “Inhibitors of osteoclastogenesis from Lawsonia inermis leaves” (Bioorg Med Chem Lett, 2010).

Columns and labels:
[1] = Inhibition of RANKL-induced osteoclastogenesis in mouse BMDM assessed as decrease in TRAP-positive cells at 10 uM after 5 days by light microscopy; format: functional; conditions: 120 h
[2] = Cytotoxicity against mouse BMDM cells at 10 uM after 72 hrs by MTS assay; format: cell-based

**Q.** Which inhibition at 10 µM [1] does the source give for `O=c1ccc2ccc(O[C@@H]3O[C@H](CO)[C@@H](O)[C@H](O)[C@H]3O)c(O[C@@H]3O[C@H](CO)[C@@H](O)[C@H](O)[C@H]3O)c2o1` [DAPHNESIDE] here?
**A.** 20%

**Q.** What about the Activity [2] of the same compound?
**A.** Non-toxic

**Q.** For `COc1cc2cc(Oc3ccc4ccc(=O)oc4c3)c(=O)oc2cc1O[C@@H]1O[C@H](CO)[C@@H](O)[C@H](O)[C@H]1O` [DAPHNORIN], which inhibition at 10 µM [1] is on record?
**A.** 13%

**Q.** And the Activity [2]?
**A.** Non-toxic
